These are literature values, as cited in patent publication US20240293600A1, “COMPOSITIONS, METHODS, AND DEVICES FOR SUSTAINED RELEASE OF AN AGENT” (Board of Supervisors of Louisiana State University and …, priority 2021, published 2024).

Molecules are shown by their SMILES.

On to `O=c1c(O)c(-c2ccc(O)c(O)c2)oc2cc(O)cc(O)c12` [Quercetin, 2-(3,4-dihydroxyphenyl)-3,5,7-trihydroxy-4H-1-benzopyran-4-one], for which the solubility in water result is “practically insoluble in water”.
